In article PMC11649115, “In vitro safety evaluation of dopamine D3R antagonist, R-VK4-116, as a potential medication for the treatment of opioid use disorder” (PLOS ONE, 2024) one finds activity data, which are given here for two compounds.

Data set [1] deals with T1, CYP2C8 (Homo sapiens, UniProt P10632).
T1 sequence (P10632 1-490): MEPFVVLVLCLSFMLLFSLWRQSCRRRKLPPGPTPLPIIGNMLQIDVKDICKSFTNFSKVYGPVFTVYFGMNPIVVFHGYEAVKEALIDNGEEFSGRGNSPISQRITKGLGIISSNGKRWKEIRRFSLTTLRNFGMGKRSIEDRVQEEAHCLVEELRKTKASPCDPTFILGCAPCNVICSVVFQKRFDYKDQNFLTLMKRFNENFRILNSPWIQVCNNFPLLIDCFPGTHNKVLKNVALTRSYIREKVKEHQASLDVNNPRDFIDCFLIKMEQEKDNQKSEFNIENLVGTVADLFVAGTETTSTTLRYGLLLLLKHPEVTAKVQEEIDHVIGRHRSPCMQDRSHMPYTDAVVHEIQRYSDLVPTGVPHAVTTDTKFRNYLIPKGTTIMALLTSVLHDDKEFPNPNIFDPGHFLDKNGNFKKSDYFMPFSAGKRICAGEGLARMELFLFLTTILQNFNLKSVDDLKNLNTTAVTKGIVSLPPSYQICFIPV
Briefly: in vitro. The following applies: microsomes.

The next data set deals with CYP3A4 (Homo sapiens, UniProt P08684). Description: in vitro. Conditions: microsomes.
For data set [2], the target named is T2, CYP1A2 (Homo sapiens, UniProt P05177).
T2 sequence (P05177 1-516): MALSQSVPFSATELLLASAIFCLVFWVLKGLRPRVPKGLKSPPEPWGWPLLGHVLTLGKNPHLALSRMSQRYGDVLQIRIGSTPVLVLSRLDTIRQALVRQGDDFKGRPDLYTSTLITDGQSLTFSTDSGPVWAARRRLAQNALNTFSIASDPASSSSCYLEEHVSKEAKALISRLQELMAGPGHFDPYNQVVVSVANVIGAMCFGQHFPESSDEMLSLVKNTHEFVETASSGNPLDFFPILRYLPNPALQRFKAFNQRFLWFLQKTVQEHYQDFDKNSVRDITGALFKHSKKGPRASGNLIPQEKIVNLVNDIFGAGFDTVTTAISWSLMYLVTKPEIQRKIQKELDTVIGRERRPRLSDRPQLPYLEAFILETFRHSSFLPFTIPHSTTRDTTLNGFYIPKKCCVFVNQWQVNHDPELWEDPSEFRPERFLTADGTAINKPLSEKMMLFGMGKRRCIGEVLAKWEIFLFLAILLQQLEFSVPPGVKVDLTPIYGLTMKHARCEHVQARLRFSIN
Briefly: CYP inhibition in human liver microsomes. Conditions: human, human liver microsomes, probe phenacetin.

The target of the next data set is T3, CYP2B6 (Homo sapiens, UniProt P20813).
T3 sequence (P20813 1-491): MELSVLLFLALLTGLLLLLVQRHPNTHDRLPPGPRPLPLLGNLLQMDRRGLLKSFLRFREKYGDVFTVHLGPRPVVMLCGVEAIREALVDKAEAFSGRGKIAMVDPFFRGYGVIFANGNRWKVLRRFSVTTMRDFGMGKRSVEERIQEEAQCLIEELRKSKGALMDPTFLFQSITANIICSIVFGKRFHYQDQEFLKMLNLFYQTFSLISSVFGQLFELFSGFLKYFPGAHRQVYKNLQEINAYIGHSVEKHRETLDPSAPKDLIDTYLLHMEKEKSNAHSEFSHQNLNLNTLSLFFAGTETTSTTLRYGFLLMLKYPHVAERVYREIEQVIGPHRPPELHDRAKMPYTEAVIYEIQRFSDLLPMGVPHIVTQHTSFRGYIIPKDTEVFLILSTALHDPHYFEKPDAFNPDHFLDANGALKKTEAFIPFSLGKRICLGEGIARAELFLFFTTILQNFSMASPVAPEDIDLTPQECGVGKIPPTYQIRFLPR
Description: CYP inhibition in human liver microsomes. Conditions: human, human liver microsomes, probe bupropion. Background: Liver microsomes are vesicles of endoplasmic reticulum, rich in cytochrome P450 enzymes.

Another data set has as its target CYP2C9 (Homo sapiens, UniProt P11712). Briefly: CYP inhibition in human liver microsomes. The following applies: human, human liver microsomes, probe diclofenac.
The next data set has as its target CYP2C19 (Homo sapiens, UniProt P33261). Briefly: CYP inhibition in human liver microsomes. The following applies: human, human liver microsomes, probe mephenytoin.
For another data set, the target named is CYP2D6 (Homo sapiens, UniProt P10635). Description: CYP inhibition in human liver microsomes. The following applies: human, human liver microsomes, probe bufuralol.
Data set [3] deals with T2, CYP1A2. Description: in vitro. Conditions: microsomes.
Data set [4] has as its target T1, CYP2C8. Briefly: CYP inhibition in human liver microsomes. Conditions: human, human liver microsomes, probe paclitaxel.
The mark [5] stands for this setting: CYP activity (% of Control) 3A4 (Midazolam).
Where [6] appears, read: CYP activity (% of Control) 3A4 (Testosterone).

CYP3A4, sequence (P08684 2-503): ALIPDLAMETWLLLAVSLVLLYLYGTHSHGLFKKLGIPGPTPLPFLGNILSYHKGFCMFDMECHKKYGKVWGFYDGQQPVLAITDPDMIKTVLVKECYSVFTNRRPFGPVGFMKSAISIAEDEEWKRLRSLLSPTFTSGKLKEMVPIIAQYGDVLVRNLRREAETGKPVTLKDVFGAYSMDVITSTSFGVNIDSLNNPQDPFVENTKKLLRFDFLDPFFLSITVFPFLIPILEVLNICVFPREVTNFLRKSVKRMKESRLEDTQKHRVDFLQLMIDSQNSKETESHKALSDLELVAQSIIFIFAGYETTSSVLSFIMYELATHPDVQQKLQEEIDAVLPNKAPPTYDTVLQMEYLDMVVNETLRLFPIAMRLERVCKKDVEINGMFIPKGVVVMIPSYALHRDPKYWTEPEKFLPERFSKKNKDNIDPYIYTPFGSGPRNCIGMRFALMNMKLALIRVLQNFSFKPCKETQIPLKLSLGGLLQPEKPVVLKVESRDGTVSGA
CYP2C19, sequence (P33261 whole entry): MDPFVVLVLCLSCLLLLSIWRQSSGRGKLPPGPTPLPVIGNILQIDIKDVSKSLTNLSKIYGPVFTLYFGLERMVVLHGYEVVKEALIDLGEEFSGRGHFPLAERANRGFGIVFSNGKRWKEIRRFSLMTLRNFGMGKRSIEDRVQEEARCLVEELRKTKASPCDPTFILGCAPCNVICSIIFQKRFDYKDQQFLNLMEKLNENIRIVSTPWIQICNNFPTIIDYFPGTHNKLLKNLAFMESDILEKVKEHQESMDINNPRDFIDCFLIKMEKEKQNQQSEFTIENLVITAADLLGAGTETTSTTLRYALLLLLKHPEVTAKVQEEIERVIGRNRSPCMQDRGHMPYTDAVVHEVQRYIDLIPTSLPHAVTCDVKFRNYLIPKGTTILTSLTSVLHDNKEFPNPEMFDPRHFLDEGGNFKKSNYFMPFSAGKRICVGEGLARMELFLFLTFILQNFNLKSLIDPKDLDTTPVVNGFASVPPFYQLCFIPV
CYP2D6, sequence (P10635 whole entry): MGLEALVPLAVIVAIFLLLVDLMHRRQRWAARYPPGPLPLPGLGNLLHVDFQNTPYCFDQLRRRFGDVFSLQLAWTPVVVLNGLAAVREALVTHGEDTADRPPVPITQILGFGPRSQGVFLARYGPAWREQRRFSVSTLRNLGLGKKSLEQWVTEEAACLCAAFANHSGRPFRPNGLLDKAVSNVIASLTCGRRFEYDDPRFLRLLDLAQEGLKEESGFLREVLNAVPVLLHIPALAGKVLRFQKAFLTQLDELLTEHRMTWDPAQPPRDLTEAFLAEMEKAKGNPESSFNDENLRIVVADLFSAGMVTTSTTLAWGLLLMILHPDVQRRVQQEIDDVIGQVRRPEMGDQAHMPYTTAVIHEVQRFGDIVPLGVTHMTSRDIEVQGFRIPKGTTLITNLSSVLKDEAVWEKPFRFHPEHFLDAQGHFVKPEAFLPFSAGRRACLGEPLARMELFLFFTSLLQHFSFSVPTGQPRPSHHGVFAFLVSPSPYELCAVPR
CYP2C9, sequence (P11712 whole entry): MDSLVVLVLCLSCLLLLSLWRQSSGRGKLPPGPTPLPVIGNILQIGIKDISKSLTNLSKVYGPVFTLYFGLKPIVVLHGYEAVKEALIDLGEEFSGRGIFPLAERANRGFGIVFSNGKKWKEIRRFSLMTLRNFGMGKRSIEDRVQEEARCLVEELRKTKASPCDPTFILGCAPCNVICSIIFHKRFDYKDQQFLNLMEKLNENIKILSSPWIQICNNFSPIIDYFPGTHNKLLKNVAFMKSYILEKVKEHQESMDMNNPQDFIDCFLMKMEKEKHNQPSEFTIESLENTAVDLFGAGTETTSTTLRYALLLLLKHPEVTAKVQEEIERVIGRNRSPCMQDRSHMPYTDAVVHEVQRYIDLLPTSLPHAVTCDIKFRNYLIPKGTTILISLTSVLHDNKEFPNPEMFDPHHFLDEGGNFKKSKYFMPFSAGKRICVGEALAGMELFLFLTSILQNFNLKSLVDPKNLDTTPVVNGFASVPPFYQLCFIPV

Regarding `CC(C)(O)c1ccccc1CC[C@@H](SCC1(CC(=O)O)CC1)c1cccc(/C=C/c2ccc3ccc(Cl)cc3n2)c1` [Montelukast], the activity at 20 min, 10 µM on CYP2C8 [1] stood at 10.3 ± 0.7%; at CYP3A4 (setting [5]) it was 93.8 ± 3.9%; at CYP3A4 (setting [6]) it was 93.1 ± 2%; at CYP1A2 [2] it was 91 ± 1.8%; on CYP2B6, 90.5 ± 1.3%; on CYP2C9, 75.4 ± 0.9%. Further, the activity at 20 min, 10 µM on CYP2C19 was found to be 105 ± 2%; at CYP2D6 it was 88.4 ± 1.8%.

In the case of `Cc1nc2c([nH]1)c(=O)n(C)c(=O)n2Cc1ccco1` [Furafylline], the activity at 20 min, 10 µM on CYP1A2 [3] was 49 ± 5.3%; on CYP3A4 (setting [5]) it was 97.2 ± 4.7%; on CYP3A4 (setting [6]), 95.1 ± 5.6%; on CYP2B6, 97.3 ± 2.9%; on CYP2C8 [4], 89.9 ± 1.4%; on CYP2C9 it was 96.3 ± 1.4%. For the same compound, the activity at 20 min, 10 µM stood at 94.3 ± 8.1% at CYP2C19 and 94.7 ± 1.1% at CYP2D6.
